The values that follow come from patent US7951782B2, “Composition effective to prevent or treat adult disease” (Maruha Nichiro Seafoods, Inc, priority 2005, dated 2011).

Residues, ends and D or L forms follow the SMILES beside them. No end group written: not given here.

Data set [1] is described as follows: Solubility of synthesized polypeptides.
Description: Twenty-four polypeptides contained in the alcalase-digested, reverse phase column fraction of the basic fraction were synthesized in yields of 10 to 300 mg in the same manner as described in Example 7 and their characteristic values were determined.
Data set [2] deals with T1, xanthine oxidase (XO) of cow's milk (Bos taurus, UniProt P80457).
T1 construct: xanthine oxidase (XO) of cow's milk (from Wako Pure Chemical); purchased Wako Pure Chemical; host or cells: cow's milk (natural source)
Kind of data set: Uric acid synthetase inhibitory activity of peptides that are part of SEQ ID No. 1. It is filed as biochemical. The following applies: 15 μM xanthine, 50 mM tris-HCl pH 7.4, 37° C., 10 minutes. Here is the method: Each of the peptides synthesized was added to 1 ml of a 50 mM tris-HCl buffer (pH 7.4) containing 15 μM xanthine as an enzyme substrate to prepare a reaction system. To the reaction system was added 0.1 unit (containing 100 μl of 25 units/25 ml enzyme solution) of xanthine oxidase (XO) of cow's milk (from Wako Pure Chemical), followed by allowing the system to react at 37° C. for 10 minutes. The amount of uric acid produced from xanthine by the action of xanthine oxidase was evaluated in terms of changes in optical density (OD, at 292 nm), from which the enzyme activity was calculated from formula previously given.

Data set [3] deals with T2, xanthine oxidase (XO) from butter milk (Bos taurus, UniProt P80457).
T2 construct: xanthine oxidase (XO) from butter milk (from Wako Pure Chemical); purchased Wako Pure Chemical; host or cells: butter milk (natural source)
Description: Uric acid synthetase inhibitory activity of polypeptides (YINY, YNL, GYL, INF). The data set is classed as biochemical. As to conditions: 15 μM xanthine, pH 7.4, 37° C., 10 minutes. Here is the method: A polypeptide having SEQ ID No. 2 (YINY), which is contained in the enzyme-digested reverse-phase column fraction of the basic fraction of a shark cartilage extract, was synthesized in the same manner as in Example 7 and added to 200 μl of a 50 mM tris-HCl buffer (pH 7.4) containing 15 μM xanthine as an enzyme substrate to prepare a reaction system. To the reaction system was added 0.1 unit (containing 1 μl of 10 units/100 μl enzyme solution) of xanthine oxidase (XO) from butter milk (from Wako Pure Chemical), followed by allowing the system to react at 37° C. for 10 minutes. The amount of uric acid produced from xanthine by the action of xanthine oxidase was evaluated in terms of changes in optical density (OD, at 292 nm), from which the enzyme activity was calculated from formula previously given.
Polypeptides YNL, GYL, and INF which are contained in the enzyme-digested reverse-phase column fraction of the basic fraction of a shark cartilage extract were synthesized in the same manner as in Example 7 and added to 200 μl of a 50 mM tris-HCl buffer (pH 7.4) containing 15 μM xanthine as an enzyme substrate to prepare a reaction system. […] The amount of uric acid produced from xanthine by the action of xanthine oxidase was evaluated in terms of changes in optical density (OD, at 292 nm), from which the enzyme activity was calculated from formula previously given. […]

T1 sequence (P80457 whole entry): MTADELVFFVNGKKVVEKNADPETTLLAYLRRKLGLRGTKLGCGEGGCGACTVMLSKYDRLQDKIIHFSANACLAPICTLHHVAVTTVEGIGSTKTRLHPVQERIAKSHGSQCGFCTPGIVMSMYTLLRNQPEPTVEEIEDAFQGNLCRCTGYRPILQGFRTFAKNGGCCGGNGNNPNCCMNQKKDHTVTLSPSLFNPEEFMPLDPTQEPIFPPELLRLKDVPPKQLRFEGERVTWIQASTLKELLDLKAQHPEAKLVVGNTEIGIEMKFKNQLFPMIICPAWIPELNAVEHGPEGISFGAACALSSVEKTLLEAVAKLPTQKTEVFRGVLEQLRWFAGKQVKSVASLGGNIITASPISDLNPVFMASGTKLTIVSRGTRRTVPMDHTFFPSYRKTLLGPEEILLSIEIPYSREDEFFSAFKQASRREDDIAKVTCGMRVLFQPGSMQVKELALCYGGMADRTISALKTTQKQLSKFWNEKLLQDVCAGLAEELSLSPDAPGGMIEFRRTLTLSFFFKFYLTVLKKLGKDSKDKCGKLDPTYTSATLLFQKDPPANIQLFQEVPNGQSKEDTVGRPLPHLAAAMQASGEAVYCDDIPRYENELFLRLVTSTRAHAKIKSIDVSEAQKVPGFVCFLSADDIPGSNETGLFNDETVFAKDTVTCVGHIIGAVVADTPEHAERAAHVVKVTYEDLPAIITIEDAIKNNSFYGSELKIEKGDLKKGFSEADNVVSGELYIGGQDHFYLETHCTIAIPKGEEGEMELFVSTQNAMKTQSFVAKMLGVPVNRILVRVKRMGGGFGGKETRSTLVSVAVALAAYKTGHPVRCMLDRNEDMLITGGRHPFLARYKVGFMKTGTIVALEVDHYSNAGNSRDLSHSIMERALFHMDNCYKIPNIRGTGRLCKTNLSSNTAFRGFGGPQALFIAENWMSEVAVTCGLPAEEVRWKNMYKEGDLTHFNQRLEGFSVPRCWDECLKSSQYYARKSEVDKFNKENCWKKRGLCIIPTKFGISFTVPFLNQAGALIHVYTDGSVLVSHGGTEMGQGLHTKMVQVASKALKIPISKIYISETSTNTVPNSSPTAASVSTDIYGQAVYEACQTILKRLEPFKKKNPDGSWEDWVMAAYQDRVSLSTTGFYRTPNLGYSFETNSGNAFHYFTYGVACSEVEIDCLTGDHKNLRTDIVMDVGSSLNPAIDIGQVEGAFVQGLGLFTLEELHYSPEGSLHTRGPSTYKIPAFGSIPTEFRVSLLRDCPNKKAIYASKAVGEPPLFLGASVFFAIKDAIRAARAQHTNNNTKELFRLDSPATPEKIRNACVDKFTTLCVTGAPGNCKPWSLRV
T2 sequence (P80457 whole entry): as above

`N=C(N)NCCC[C@H](N)C(=O)N[C@@H](Cc1ccc(O)cc1)C(=O)N[C@@H](Cc1ccccc1)C(=O)O` [Arg-Tyr-Phe] (H-Arg-Tyr-Phe-OH; N-terminus and C-terminus assumed) registered a Solubility in data set [1] (in water (H2O)) of 1 mg/ml in H2O. `NC(=O)C[C@H](NC(=O)[C@@H](N)CC(=O)O)C(=O)O` [DN] (H-Asp-Asn-OH; N-terminus and C-terminus assumed): in data set [2], the “xanthine oxidase activity in system containing the peptide” value is on record as “inhibited”. The compound `CC(C)C[C@H](NC(=O)[C@H](Cc1ccc(O)cc1)NC(=O)CN)C(=O)O` [GYL, Gly-Tyr-Leu] (H-Gly-Tyr-Leu-OH; N-terminus and C-terminus assumed) registered a Solubility in data set [1] (in water (H2O)) of 1 mg/ml in H2O. As for `CC(C)C[C@H](NC(=O)[C@H](Cc1ccccc1)NC(=O)CN)C(=O)O` [Gly-Phe-Leu] (H-Gly-Phe-Leu-OH; N-terminus and C-terminus assumed), the Solubility in data set [1] (in 10% Acetonitrile in water) turned out to be 1 mg/ml in 10%. With `CC[C@H](C)[C@H](N)C(=O)N[C@@H](CC(N)=O)C(=O)N[C@@H](Cc1ccccc1)C(=O)O` [INF, Ile-Asn-Phe] (H-Ile-Asn-Phe-OH; N-terminus and C-terminus assumed), the Solubility in data set [1] (in water (H2O)) stood at 1 mg/ml in H2O.

Compound `CC[C@H](C)[C@H](N)C(=O)N[C@@H](CC(N)=O)C(=O)N[C@@H](Cc1ccc(O)cc1)C(=O)O` [Ile-Asn-Tyr] (H-Ile-Asn-Tyr-OH; N-terminus and C-terminus assumed) gave a Solubility in data set [1] (in 5% NH4OH with H2O) of 1 mg/ml in 5% NH4OH. In turn, `CC[C@H](C)[C@H](N)C(=O)N[C@@H](Cc1ccc(O)cc1)C(=O)N[C@@H](CC(C)C)C(=O)O` [Ile-Tyr-Leu] (H-Ile-Tyr-Leu-OH; N-terminus and C-terminus assumed) showed a Solubility in data set [1] (in 10% Acetonitrile in water) of 1 mg/ml in 10% in. Regarding `CC(C)C[C@H](N)C(=O)N[C@@H](CC(=O)O)C(=O)N[C@@H](CC(N)=O)C(=O)N[C@@H](Cc1ccc(O)cc1)C(=O)O` [LDNY, Leu-Asp-Asn-Tyr] (H-LDNY-OH; N-terminus and C-terminus assumed), the “xanthine oxidase activity in system containing the peptide” value in data set [2] is given as “inhibited”. Besides, the Solubility in data set [1] (in water (H2O)) was 1 mg/ml in water.

As for `CC(C)C[C@H](N)C(=O)N[C@@H](CC(=O)O)C(=O)O` [LD] (H-Leu-Asp-OH; N-terminus and C-terminus assumed), the “xanthine oxidase activity in system containing the peptide” value in data set [2] is on record as “inhibited”.

On to `CC(C)C[C@H](N)C(=O)N[C@@H](Cc1ccccc1)C(=O)O` [Leu-Phe] (H-Leu-Phe-OH; N-terminus and C-terminus assumed), for which, in data set [1] (in water (H2O)), the Solubility is 1 mg/ml in H2O. The same measure, in the same setting: with `N[C@@H](Cc1ccccc1)C(=O)N[C@@H](Cc1ccc(O)cc1)C(=O)O` [Phe-Tyr] (H-Phe-Tyr-OH; N-terminus and C-terminus assumed) the figure was 1 mg/ml in H2O; with `NC(=O)CC[C@H](NC(=O)[C@H](Cc1c[nH]c2ccccc12)NC(=O)[C@H](CC(N)=O)NC(=O)[C@@H](N)CO)C(=O)O` [Ser-Asn-Trp-Gln] (H-SNWQ-OH; N-terminus and C-terminus assumed), 1 mg/ml in H2O. `CC[C@H](C)[C@H](NC(=O)[C@@H](N)CO)C(=O)N[C@@H](Cc1ccc(O)cc1)C(=O)N[C@@H](CC(=O)O)C(=O)O` [Ser-Ile-Tyr-Asp] (H-SIYD-OH; N-terminus and C-terminus assumed) displayed a Solubility in data set [1] (in 5% NH4OH with H2O) of 1 mg/ml in 5% NH4OH. With `CC(C)C[C@H](NC(=O)[C@@H](N)CO)C(=O)O` [Ser-Leu] (H-Ser-Leu-OH; N-terminus and C-terminus assumed), the Solubility in data set [1] (in water (H2O)) was 1 mg/ml in water.

Regarding `CC(C)[C@H](N)C(=O)N[C@@H](CCC(=O)O)C(=O)N[C@@H](Cc1ccc(O)cc1)C(=O)N[C@@H](Cc1ccccc1)C(=O)O` [Val-Gln-Tyr-Phe], the Solubility in data set [1] (in water (H2O)) is reported as 1 mg/ml in water.

Consider `CC(C)[C@H](N)C(=O)N[C@@H](Cc1ccc(O)cc1)C(=O)N[C@@H](CCC(N)=O)C(=O)O` [Val-Tyr-Gln] (H-Val-Tyr-Gln-OH; N-terminus and C-terminus assumed), for which the Solubility in data set [1] (in water (H2O)) is 1 mg/ml in H2O. For the compound `CC[C@H](C)[C@H](NC(=O)[C@@H](N)Cc1ccc(O)cc1)C(=O)N[C@@H](CC(N)=O)C(=O)N[C@@H](Cc1ccc(O)cc1)C(=O)O` [YINY, Try-Ile-Asn-Tyr] (H-YINY-OH; N-terminus and C-terminus assumed), in data set [3], the “xanthine oxidase activity in system containing the polypeptide” value is “inhibited”. The compound further yielded a Solubility in data set [1] (in 5% NH4OH with H2O) of 1 mg/ml in 5% NH4OH. `CC(C)C[C@H](NC(=O)[C@@H](N)Cc1ccc(O)cc1)C(=O)N[C@@H](CC(=O)O)C(=O)N[C@@H](CC(N)=O)C(=O)O` [YLDN, Tyr-Leu-Asp-Asn] (H-YLDN-OH; N-terminus and C-terminus assumed): the “xanthine oxidase activity in system containing the peptide” value in data set [2] is “inhibited”. In addition, the Solubility in data set [1] (in water (H2O)) is on record as 1 mg/ml in water. `CC(C)C[C@H](NC(=O)[C@H](CC(N)=O)NC(=O)[C@@H](N)Cc1ccc(O)cc1)C(=O)O` [YNL, Tyr-Asn-Leu] (H-Tyr-Asn-Leu-OH; N-terminus and C-terminus assumed) displayed a Solubility in data set [1] (in water (H2O)) of 1 mg/ml in H2O. In data set [1] (in water (H2O)), DFWRY [Asp-Phe-Trp-Arg-Tyr] displayed a Solubility of 1 mg/ml in water. Same read-out and setting: the same measure for “SPPYWPY [SPPYWPY, Ser-Pro-Pro-Tyr-Trp-Pro-Tyr]”: 1 mg/ml in water.

Take YLDNY [YLDNY, Tyr-Leu-Asp-Asn-Tyr]: the Solubility in data set [1] (in 10% Acetonitrile in water) amounted to 1 mg/ml in 10%.
